Data published in patent US20230002374A1, “GPR52 MODULATOR COMPOUNDS” (Heptares Therapeutics Limited, priority 2019, published 2023).

Molecular target: human GPR52 (Homo sapiens, UniProt Q9Y2T5)
Experiment: GPR52 Agonist Functional cAMP Assay;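 further: HEKf cells transduced with GPR52 BacMam for 24 h, 2000 per well, exposed to compounds 30 min at 37° C with 0.5 mM IBMX, cAMP read by HTRF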
Conditions: for Emax: maximal response normalised to DMSO (0%) and maximal compound 7m (J. Med. Chem., 2014, 57, 5226) response (100%); for EC50: pEC50 average, HEKf cells infected with human GPR52 BacMam virus, cAMP HTRF, 30 min at 37° C.

human GPR52, sequence (Q9Y2T5 whole entry): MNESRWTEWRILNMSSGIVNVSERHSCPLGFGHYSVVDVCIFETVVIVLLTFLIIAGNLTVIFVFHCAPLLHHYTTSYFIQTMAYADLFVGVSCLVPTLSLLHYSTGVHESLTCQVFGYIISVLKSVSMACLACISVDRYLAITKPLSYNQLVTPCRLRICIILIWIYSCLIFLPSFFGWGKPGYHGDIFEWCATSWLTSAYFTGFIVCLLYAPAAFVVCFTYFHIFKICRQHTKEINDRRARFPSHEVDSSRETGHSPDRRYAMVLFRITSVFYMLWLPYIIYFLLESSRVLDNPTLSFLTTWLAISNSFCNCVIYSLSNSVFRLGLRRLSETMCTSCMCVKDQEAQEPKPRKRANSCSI

| Compound | Emax | EC50 |
| --- | --- | --- |
| Cc1nn(-c2ccnc(Cc3ccc(OC(F)F)nc3)c2)c2c1C(=O)NCC2 [Example 94, 1-(2-((6-(difluoromethoxy)pyridin-3-yl)methyl)pyridin-4-yl)-3-methyl-1,5,6,7-tetrahydro-4H-pyrazolo[4,3-c]pyridin-4-one] | 78% | 398 nM |
| N#Cc1cc(F)cc(Cc2cc(-n3ncc4c3CCNC4=O)ccn2)c1 [Example 96, 3-fluoro-5-((4-(4-oxo-4,5,6,7-tetrahydro-1H-pyrazolo[4,3-c]pyridin-1-yl)pyridin-2-yl)methyl)benzonitrile] | 94% | 794 nM |
| O=C1NCCCc2c1nnn2-c1ccnc(Cc2cc(F)cc(C(F)(F)F)c2)c1 [Example 97, 1-(2-(3-fluoro-5-(trifluoromethyl)benzyl)pyridin-4-yl)-5,6,7,8-tetrahydro-[1,2,3]triazolo[4,5-c]azepin-4(1H)-one] | 90% | 2510 nM |
| O=C1NCCc2nn(-c3cc(Cc4cc(F)cc(C(F)(F)F)c4)ccn3)nc21 [Example 98, 2-(4-(3-fluoro-5-(trifluoromethyl)benzyl)pyridin-2-yl)-2,5,6,7-tetrahydro-4H-[1,2,3]triazolo[4,5-c]pyridin-4-one] | 92% | 158 nM |
| O=C1NCCc2c1nnn2-c1cc(Cc2cc(F)cc(C(F)(F)F)c2)ccn1 [Example 99, 1-(4-(3-fluoro-5-(trifluoromethyl)benzyl)pyridin-2-yl)-1,5,6,7-tetrahydro-4H-[1,2,3]triazolo[4,5-c]pyridin-4-one] | 95% | 126 nM |
| O=C1NCCc2c1cnn2-c1cncc(Oc2cc(F)cc(C(F)(F)F)c2)c1 [Example 103, 1-(5-(3-fluoro-5-(trifluoromethyl)phenoxy)pyridin-3-yl)-1,5,6,7-tetrahydro-4H-pyrazolo[4,3-c]pyridin-4-one] | 68% | 1000 nM |
| COCCN1CCc2c(cnn2-c2ccnc(Cc3cc(F)cc(C(F)(F)F)c3)c2)C1=O [Example 104, 1-(2-(3-fluoro-5-(trifluoromethyl)benzyl)pyridin-4-yl)-5-(2-methoxyethyl)-1,5,6,7-tetrahydro-4H-pyrazolo[4,3-c]pyridin-4-one] | 94% | 100 nM |
| O=C1c2cnn(-c3ccnc(Cc4cc(F)cc(C(F)(F)F)c4)c3)c2CCN1CCO [Example 105, 1-(2-(3-fluoro-5-(trifluoromethyl)benzyl)pyridin-4-yl)-5-(2-hydroxyethyl)-1,5,6,7-tetrahydro-4H-pyrazolo[4,3-c]pyridin-4-one] | 97% | 63.1 nM |
| COCCN1CCc2c(cnn2-c2cc(Cc3cc(F)cc(C(F)(F)F)c3)ccn2)C1=O [Example 106, 1-(4-(3-fluoro-5-(trifluoromethyl)benzyl)pyridin-2-yl)-5-(2-methoxyethyl)-1,5,6,7-tetrahydro-4H-pyrazolo[4,3-c]pyridin-4-one] | 86% | 31.6 nM |
| Cc1cnc(Cc2cc(F)cc(C(F)(F)F)c2)cc1-n1ncc2c1CCNC2=O [Example 108, 1-(2-(3-fluoro-5-(trifluoromethyl)benzyl)-5-methylpyridin-4-yl)-1,5,6,7-tetrahydro-4H-pyrazolo[4,3-c]pyridin-4-one] | 80% | 79.4 nM |
| O=C1NCCc2c1cnn2-c1ccnc(Cc2cnc(OC(F)F)c(F)c2)c1 [Example 110, 1-(2-((6-(difluoromethoxy)-5-fluoropyridin-3-yl)methyl)pyridin-4-yl)-1,5,6,7-tetrahydro-4H-pyrazolo[4,3-c]pyridin-4-one] | 74% | 501 nM |
| Cc1nn(-c2ccnc(Cc3cnc(OC(F)F)c(F)c3)c2)c2c1C(=O)NCC2 [Example 111, 1-(2-((6-(difluoromethoxy)-5-fluoropyridin-3-yl)methyl)pyridin-4-yl)-3-methyl-1,5,6,7-tetrahydro-4H-pyrazolo[4,3-c]pyridin-4-one] | 87% | 63.1 nM |
| O=C1NCCOc2nn(-c3ccnc(Cc4cc(F)cc(C(F)(F)F)c4)c3)cc21 [Example 112, 2-(2-(3-fluoro-5-(trifluoromethyl)benzyl)pyridin-4-yl)-6,7-dihydro-2H-pyrazolo[4,3-f][1,4]oxazepin-4(5H)-one] | 77% | 398 nM |
| O=C1NCCc2c1c(CO)nn2-c1ccnc(Cc2cc(F)cc(C(F)(F)F)c2)c1 [Example 114, 1-(2-(3-fluoro-5-(trifluoromethyl)benzyl)pyridin-4-yl)-3-(hydroxymethyl)-1,5,6,7-tetrahydro-4H-pyrazolo[4,3-c]pyridin-4-one] | 93% | 39.8 nM |

Molecules with a lower EC50, results first:

| Emax | EC50 | Compound |
| --- | --- | --- |
| 98% | 6.31 nM | Cc1nn(-c2cc(Cc3cc(F)cc(C(F)(F)F)c3)ccn2)c2c1C(=O)NCC2 [Example 95, 1-(4-(3-fluoro-5-(trifluoromethyl)benzyl)pyridin-2-yl)-3-methyl-1,5,6,7-tetrahydro-4H-pyrazolo[4,3-c]pyridin-4-one] |
| 98% | 10 nM | O=C1NCCc2c1cnn2-c1cc(Cc2cc(F)cc(C(F)F)c2)ccn1 [Example 102, 1-(4-(3-(difluoromethyl)-5-fluorobenzyl)pyridin-2-yl)-1,5,6,7-tetrahydro-4H-pyrazolo[4,3-c]pyridin-4-one] |
| 99% | 12.6 nM | O=C1c2cnn(-c3cc(Cc4cc(F)cc(C(F)(F)F)c4)ccn3)c2CCN1CCO [Example 107, 1-(4-(3-fluoro-5-(trifluoromethyl)benzyl)pyridin-2-yl)-5-(2-hydroxyethyl)-1,5,6,7-tetrahydro-4H-pyrazolo[4,3-c]pyridin-4-one] |
| 95% | 15.8 nM | O=C1NCCc2c1c(CO)nn2-c1cc(Cc2cc(F)cc(C(F)(F)F)c2)ccn1 [Example 113, 1-(4-(3-fluoro-5-(trifluoromethyl)benzyl)pyridin-2-yl)-3-(hydroxymethyl)-1,5,6,7-tetrahydro-4H-pyrazolo[4,3-c]pyridin-4-one] |
| 91% | 25.1 nM | N#Cc1nn(-c2ccnc(Cc3cc(F)cc(C(F)(F)F)c3)c2)c2c1C(=O)NCC2 [Example 115, 1-(2-(3-fluoro-5-(trifluoromethyl)benzyl)pyridin-4-yl)-4-oxo-4,5,6,7-tetrahydro-1H-pyrazolo[4,3-c]pyridine-3-carbonitrile] |
| 95% | 5.01 nM | O=C1NCCc2c1c(C(F)(F)F)nn2-c1ccnc(Cc2cc(F)cc(C(F)(F)F)c2)c1 [Example 116, 1-(2-(3-fluoro-5-(trifluoromethyl)benzyl)pyridin-4-yl)-3-(trifluoromethyl)-1,5,6,7-tetrahydro-4H-pyrazolo[4,3-c]pyridin-4-one] |
